Experimental data taken from BigSolDB 2.1.

COc1cc(-c2cc(-c3ccc(F)cc3)[nH]c(=O)c2C#N)ccc1O
solubility (mole fraction)
Conditions | in 1,4-dioxane | in chloroform | in ethanol | in ethyl acetate | in methanol | in n-butanol | in n-propanol
298.15 K | 0.00156 | 0.00134 | 0.000762 | 0.00133 | 0.000618 | 0.000531 | 0.000864
303.15 K | 0.00164 | 0.00139 | 0.000809 | 0.00142 | 0.000638 | 0.000589 | 0.000907
308.15 K | 0.00173 | 0.00145 | 0.000848 | 0.0015 | 0.000658 | 0.000648 | 0.00095
313.15 K | 0.00183 | 0.00151 | 0.000897 | 0.0016 | 0.000688 | 0.000707 | 0.00101
318.15 K | 0.00193 | 0.00158 | 0.000946 | 0.00169 | 0.000718 | 0.000767 | 0.00108
323.15 K | 0.00202 | 0.00167 | 0.001 | 0.00178 | 0.000754 | 0.000835 | 0.00113
328.15 K | 0.00211 | 0.00176 | 0.00106 | 0.00187 | 0.00079 | 0.000903 | 0.00119

COc1cc(-c2cc(-c3ccc(Br)cc3)[nH]c(=O)c2C#N)ccc1O
solubility (mole fraction)
Conditions | in 1,4-dioxane | in chloroform | in ethanol | in ethyl acetate | in methanol | in n-butanol | in n-propanol
298.15 K | 0.0014 | 0.00114 | 0.00071 | 0.00109 | 0.000523 | 0.000338 | 0.000757
303.15 K | 0.00148 | 0.00119 | 0.00075 | 0.00116 | 0.000555 | 0.000384 | 0.0008
308.15 K | 0.00155 | 0.00123 | 0.000789 | 0.00124 | 0.000587 | 0.00043 | 0.000843
313.15 K | 0.00163 | 0.00128 | 0.000832 | 0.00132 | 0.000615 | 0.000484 | 0.0009
318.15 K | 0.0017 | 0.00133 | 0.000876 | 0.0014 | 0.000642 | 0.000538 | 0.000951
323.15 K | 0.00177 | 0.00137 | 0.000919 | 0.00148 | 0.000682 | 0.000614 | 0.000997
328.15 K | 0.00184 | 0.00142 | 0.000972 | 0.00156 | 0.000722 | 0.000691 | 0.00105

COc1cc(-c2cc(-c3ccc(Cl)cc3)[nH]c(=O)c2C#N)ccc1O
solubility (mole fraction)
Conditions | in 1,4-dioxane | in chloroform | in ethanol | in ethyl acetate | in methanol | in n-butanol | in n-propanol
298.15 K | 0.00149 | 0.00118 | 0.00073 | 0.00123 | 0.000577 | 0.0004 | 0.000791
303.15 K | 0.00156 | 0.00123 | 0.00077 | 0.00132 | 0.000603 | 0.000445 | 0.000836
308.15 K | 0.00163 | 0.00129 | 0.00081 | 0.0014 | 0.000629 | 0.000489 | 0.000882
313.15 K | 0.00172 | 0.00135 | 0.000861 | 0.0015 | 0.000653 | 0.000549 | 0.000929
318.15 K | 0.00181 | 0.00141 | 0.000905 | 0.00159 | 0.000677 | 0.000609 | 0.000976
323.15 K | 0.00189 | 0.00149 | 0.000948 | 0.00168 | 0.000705 | 0.000672 | 0.00102
328.15 K | 0.00197 | 0.00157 | 0.001 | 0.00177 | 0.000732 | 0.000735 | 0.00107

COc1cc(-c2cc(-c3ccc(O)cc3)[nH]c(=O)c2C#N)ccc1O
solubility (mole fraction)
Conditions | in 1,4-dioxane | in chloroform | in ethanol | in ethyl acetate | in methanol | in n-butanol | in n-propanol
298.15 K | 0.00153 | 0.00123 | 0.000745 | 0.00106 | 0.000574 | 0.000511 | 0.000847
303.15 K | 0.00161 | 0.0013 | 0.000786 | 0.00111 | 0.000605 | 0.000566 | 0.000882
308.15 K | 0.00169 | 0.00137 | 0.000828 | 0.00117 | 0.000635 | 0.00062 | 0.000927
313.15 K | 0.00178 | 0.00144 | 0.000876 | 0.00122 | 0.000664 | 0.000674 | 0.00098
318.15 K | 0.00187 | 0.00151 | 0.000922 | 0.00127 | 0.000693 | 0.000728 | 0.00104
323.15 K | 0.00195 | 0.00157 | 0.000976 | 0.00134 | 0.000724 | 0.000794 | 0.00111
328.15 K | 0.00203 | 0.00164 | 0.00103 | 0.0014 | 0.000754 | 0.000861 | 0.00116

COc1ccc(-c2cc(-c3ccc(O)c(OC)c3)c(C#N)c(=O)[nH]2)cc1
solubility (mole fraction)
Conditions | in 1,4-dioxane | in chloroform | in ethanol | in ethyl acetate | in methanol | in n-butanol | in n-propanol
298.15 K | 0.00145 | 0.00111 | 0.00069 | 0.00107 | 0.000472 | 0.000297 | 0.000733
303.15 K | 0.00154 | 0.00116 | 0.000724 | 0.00115 | 0.000502 | 0.000344 | 0.000782
308.15 K | 0.00162 | 0.0012 | 0.000759 | 0.00123 | 0.000532 | 0.000389 | 0.000827
313.15 K | 0.00171 | 0.00124 | 0.000802 | 0.00129 | 0.000562 | 0.000443 | 0.000886
318.15 K | 0.0018 | 0.00129 | 0.000846 | 0.00136 | 0.000592 | 0.000497 | 0.000934
323.15 K | 0.00189 | 0.00134 | 0.000899 | 0.00145 | 0.000625 | 0.000565 | 0.00098
328.15 K | 0.00199 | 0.00138 | 0.000953 | 0.00154 | 0.000659 | 0.000633 | 0.00103
